Read-outs that look alike come from different tables or passages of the source.

Experiment [1] concerns osteoarthritic rats. Put plainly: Osteoarthritic (OA) pain induced by sodium monoiodoacetate (MIA), hind limb grip force. The conditions noted are these: Rattus norvegicus, 480 h, read-out: OA MPE; for inhibition in vivo at 10 mg/kg: OA dose 10 mg/kg. Format: in vivo, rat. The method, boiled down: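 Male Sprague Dawley rats (150-175 g) received a single unilateral intra-articular knee injection of MIA (3 mg/rat) and were tested 20 days later. Peak hind limb grip force (CFmax, g force/kg body weight, mean of two trials) was scored blinded. % effect set vehicle as 0% and age-matched naïve rats as 100%.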

The subject of experiment [2] is spinal nerve ligated rats. Put plainly: Rat spinal nerve ligation (SNL) model of neuropathic pain, paw withdrawal threshold. The conditions noted are these: read-out: SNL MPE. Format: in vivo. The source says:
Rat Spinal Nerve Ligation (SNL) Model of Neuropathic Pain.
The male Sprague Dawley rats (Charles River Laboratories, Wilmington, Mass.), weighing 150-175 g at the time of surgery, were placed under isoflurane anesthesia and a 1.5 cm incision was made dorsal to the lumbosacral plexus. The paraspinal muscles (left side) were separated from the spinous processes, the left L5 and L6 spinal nerves isolated, and tightly ligated with 5-0 silk suture distal to the dorsal root ganglion. Care was taken to avoid ligating the L4 spinal nerve. Following spinal nerve ligation, a minimum of 7 days of recovery and no more than 3 weeks was allowed prior to the behavioral testing (mechanical sensitivity). Only rats with threshold scores ≦4.5 g were considered allodynic and utilized in pharmacological experiments.
Mechanical sensitivity was measured using calibrated von Frey filaments (Stoelting, Wood Dale, Ill.). […] The von Frey filaments were presented perpendicularly to the plantar surface of the selected hind paw, and then held in this position for approximately 8 seconds with enough force to cause a slight bend in the filament. Positive responses included an abrupt withdrawal of the hind paw from the stimulus, or flinching behavior immediately following removal of the stimulus. […] A percent maximal possible effect (% MPE) of testing compound was calculated according to the formula: (Log [compound−treated threshold]−Log [vehicle−treated threshold])/(Log [maximum threshold]−Log [vehicle−treated threshold])×100%, where the maximum threshold was equal to 15 g.
The animals were housed in Association for Assessment and Accreditation of Laboratory Animal Care (AAALAC) approved facilities at AbbVie Inc. in a temperature-regulated environment under a controlled 12-hour light-dark cycle, with lights on at 6:00 a.m. Food and water were available ad libitum at all times except during testing. All testing was done following procedures outlined in protocols approved by AbbVie Inc.s' Institutional Animal Care and Use Committee.

Experiment [3] has as its target recombinant human Nav1.7 (Homo sapiens (Human), UniProt Q15858). The experiment can be described thus: FRET-based membrane potential assay, recombinant human sodium channel Nav1.7. Format: cell-based. The conditions noted are these: read-out: FRET-Membrane Potential Nav1.7 IC50. A digest of the protocol:
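Channel activation used veratridine at its EC80, set by a dilution curve each experiment, together with Leiurus scorpion venom, added 3 min after compound. Membrane-potential ratio signals from FLIPR Tetra in HEPES-buffered HBSS were fitted to a four-parameter Hill equation for percent inhibition and IC50.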

Experiment [4] deals with recombinant human Nav1.8 (Homo sapiens (Human), UniProt Q9Y5Y9). Put plainly: FRET-based membrane potential assay, recombinant human sodium channel Nav1.8. Format: cell-based.
Sequence of recombinant human Nav1.8 (Q9Y5Y9 whole entry): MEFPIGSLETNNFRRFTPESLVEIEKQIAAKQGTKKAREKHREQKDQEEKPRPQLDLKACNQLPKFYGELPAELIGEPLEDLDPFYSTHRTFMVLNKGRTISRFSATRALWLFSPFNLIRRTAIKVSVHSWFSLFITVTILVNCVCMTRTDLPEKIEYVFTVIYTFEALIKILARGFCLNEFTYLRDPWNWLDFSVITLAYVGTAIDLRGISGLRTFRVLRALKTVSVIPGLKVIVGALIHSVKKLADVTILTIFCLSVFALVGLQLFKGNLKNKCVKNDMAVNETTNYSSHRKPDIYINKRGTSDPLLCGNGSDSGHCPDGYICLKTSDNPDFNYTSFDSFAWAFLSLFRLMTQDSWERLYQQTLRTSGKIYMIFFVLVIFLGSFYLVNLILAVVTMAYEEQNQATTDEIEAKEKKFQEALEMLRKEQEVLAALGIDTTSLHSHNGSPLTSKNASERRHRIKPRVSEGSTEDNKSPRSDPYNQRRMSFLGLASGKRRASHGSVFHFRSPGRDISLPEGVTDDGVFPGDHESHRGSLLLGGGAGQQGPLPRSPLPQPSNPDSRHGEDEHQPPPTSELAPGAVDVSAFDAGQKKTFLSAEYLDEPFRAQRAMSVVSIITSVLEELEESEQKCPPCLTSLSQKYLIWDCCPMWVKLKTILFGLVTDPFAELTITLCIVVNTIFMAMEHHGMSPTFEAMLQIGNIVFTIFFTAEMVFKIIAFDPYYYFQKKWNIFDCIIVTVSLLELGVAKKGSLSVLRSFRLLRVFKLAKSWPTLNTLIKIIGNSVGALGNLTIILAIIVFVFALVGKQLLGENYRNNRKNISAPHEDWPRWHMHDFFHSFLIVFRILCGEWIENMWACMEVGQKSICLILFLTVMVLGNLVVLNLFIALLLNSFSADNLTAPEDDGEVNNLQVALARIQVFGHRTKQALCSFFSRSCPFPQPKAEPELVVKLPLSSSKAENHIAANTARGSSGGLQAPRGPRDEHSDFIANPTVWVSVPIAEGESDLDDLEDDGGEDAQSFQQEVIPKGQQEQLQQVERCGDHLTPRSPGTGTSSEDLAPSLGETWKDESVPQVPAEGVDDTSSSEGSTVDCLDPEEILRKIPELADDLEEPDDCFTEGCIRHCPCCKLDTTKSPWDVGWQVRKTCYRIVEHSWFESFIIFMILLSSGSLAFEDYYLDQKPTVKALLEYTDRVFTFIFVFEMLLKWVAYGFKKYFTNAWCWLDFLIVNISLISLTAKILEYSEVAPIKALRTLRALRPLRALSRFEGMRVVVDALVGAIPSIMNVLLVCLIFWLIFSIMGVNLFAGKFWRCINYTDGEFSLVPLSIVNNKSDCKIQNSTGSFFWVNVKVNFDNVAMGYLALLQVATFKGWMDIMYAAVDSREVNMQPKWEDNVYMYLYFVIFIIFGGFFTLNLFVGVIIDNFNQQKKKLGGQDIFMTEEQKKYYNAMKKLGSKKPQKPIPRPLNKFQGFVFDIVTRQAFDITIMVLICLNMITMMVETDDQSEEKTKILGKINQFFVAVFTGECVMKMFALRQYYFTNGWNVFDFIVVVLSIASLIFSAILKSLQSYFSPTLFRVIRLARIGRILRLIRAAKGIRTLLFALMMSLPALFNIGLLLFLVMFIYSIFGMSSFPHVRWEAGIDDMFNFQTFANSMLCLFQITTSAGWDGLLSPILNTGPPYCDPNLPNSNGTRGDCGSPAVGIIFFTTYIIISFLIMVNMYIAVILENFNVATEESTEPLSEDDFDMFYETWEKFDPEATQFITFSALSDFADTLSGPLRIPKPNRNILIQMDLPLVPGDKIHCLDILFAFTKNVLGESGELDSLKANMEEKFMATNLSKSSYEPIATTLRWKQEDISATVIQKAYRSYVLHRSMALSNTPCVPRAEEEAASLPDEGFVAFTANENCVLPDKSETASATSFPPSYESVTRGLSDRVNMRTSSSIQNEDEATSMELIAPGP
Where [5] appears, read: OA dose 30 mg/kg, rat, 20 days following MIA injection, hind limb grip force.
Setting [6] is: SNL dose 100 mg/kg, rat, von Frey paw withdrawal threshold.
Where [7] appears, read: HEK293 cells stably expressing recombinant human Nav1.7, veratridine + scorpion venom depolarization.
Where [8] appears, read: rat, 20 days following MIA injection, hind limb grip force.
The mark [9] stands for this setting: HEK293 cells stably expressing recombinant human Nav1.8, veratridine + scorpion venom depolarization.

Sequence of recombinant human Nav1.7 (Q15858 whole entry): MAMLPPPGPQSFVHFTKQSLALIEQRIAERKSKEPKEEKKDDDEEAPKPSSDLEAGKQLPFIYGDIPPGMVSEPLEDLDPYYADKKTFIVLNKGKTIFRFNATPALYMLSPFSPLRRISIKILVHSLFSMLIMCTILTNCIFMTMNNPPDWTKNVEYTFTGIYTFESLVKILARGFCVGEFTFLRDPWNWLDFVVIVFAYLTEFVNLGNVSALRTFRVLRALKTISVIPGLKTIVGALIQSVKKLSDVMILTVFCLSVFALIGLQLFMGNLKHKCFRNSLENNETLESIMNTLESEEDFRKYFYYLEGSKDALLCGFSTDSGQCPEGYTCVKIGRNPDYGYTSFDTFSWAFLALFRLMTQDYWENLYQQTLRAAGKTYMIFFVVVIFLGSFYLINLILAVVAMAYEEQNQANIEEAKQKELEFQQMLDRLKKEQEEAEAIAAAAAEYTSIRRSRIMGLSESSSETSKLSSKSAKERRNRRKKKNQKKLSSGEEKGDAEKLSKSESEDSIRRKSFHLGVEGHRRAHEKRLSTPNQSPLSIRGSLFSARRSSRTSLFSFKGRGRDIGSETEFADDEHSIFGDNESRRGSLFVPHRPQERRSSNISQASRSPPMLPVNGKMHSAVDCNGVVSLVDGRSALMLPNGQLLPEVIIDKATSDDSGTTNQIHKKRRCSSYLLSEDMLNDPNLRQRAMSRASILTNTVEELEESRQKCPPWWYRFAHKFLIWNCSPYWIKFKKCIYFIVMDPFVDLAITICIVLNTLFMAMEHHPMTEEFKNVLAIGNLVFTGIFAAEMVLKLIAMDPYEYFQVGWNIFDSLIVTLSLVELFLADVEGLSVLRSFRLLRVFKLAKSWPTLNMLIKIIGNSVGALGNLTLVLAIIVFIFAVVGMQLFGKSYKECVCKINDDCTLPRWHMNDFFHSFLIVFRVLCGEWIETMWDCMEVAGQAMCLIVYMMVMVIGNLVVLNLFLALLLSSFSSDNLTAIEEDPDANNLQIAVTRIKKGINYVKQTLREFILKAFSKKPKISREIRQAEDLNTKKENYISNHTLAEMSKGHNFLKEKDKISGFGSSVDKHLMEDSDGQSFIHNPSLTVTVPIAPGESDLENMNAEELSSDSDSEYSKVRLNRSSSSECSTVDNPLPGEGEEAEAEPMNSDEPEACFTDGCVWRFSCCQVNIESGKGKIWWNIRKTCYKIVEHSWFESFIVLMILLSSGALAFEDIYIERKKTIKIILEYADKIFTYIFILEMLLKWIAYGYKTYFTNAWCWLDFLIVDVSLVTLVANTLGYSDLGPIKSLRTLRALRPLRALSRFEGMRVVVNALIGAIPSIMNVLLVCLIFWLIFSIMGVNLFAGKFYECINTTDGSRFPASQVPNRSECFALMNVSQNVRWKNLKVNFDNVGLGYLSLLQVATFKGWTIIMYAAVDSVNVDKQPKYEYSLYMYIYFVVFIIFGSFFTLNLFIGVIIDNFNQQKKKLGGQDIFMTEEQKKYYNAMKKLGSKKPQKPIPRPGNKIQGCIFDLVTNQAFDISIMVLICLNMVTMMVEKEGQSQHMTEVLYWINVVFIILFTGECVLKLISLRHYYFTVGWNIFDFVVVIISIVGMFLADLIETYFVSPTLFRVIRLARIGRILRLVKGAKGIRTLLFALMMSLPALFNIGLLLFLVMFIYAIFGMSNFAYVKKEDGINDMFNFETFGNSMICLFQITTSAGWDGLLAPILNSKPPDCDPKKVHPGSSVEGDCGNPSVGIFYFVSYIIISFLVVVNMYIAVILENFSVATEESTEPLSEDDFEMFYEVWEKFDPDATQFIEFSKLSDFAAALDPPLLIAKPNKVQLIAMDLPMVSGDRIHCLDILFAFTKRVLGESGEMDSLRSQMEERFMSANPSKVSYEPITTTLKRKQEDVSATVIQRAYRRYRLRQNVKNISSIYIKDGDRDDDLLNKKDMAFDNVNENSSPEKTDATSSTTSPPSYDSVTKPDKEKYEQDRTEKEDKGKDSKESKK

With `O=C(c1ccc2cc(Oc3ccc(C(F)(F)F)cn3)ccc2n1)N1CCNCC1` [Example 1, piperazin-1-yl(6-{[5-(trifluoromethyl)pyridin-2-yl]oxy}quinolin-2-yl)methanone], the inhibition in vivo at 30 mg/kg in experiment [1] (setting [5]) is 64%. Moreover, the inhibition in vivo at 100 mg/kg in experiment [2] (setting [6]) was found to be 49%.

In the case of `O=C(N[C@H]1CCS(=O)(=O)C1)c1ccc2cc(Oc3ccc(C(F)(F)F)cn3)ccc2n1` [Example 4, N-[(3S)-1,1-dioxidotetrahydrothiophen-3-yl]-6-{[5-(trifluoromethyl)pyridin-2-yl]oxy}quinoline-2-carboxamide], the inhibition in vivo at 30 mg/kg in experiment [1] (setting [5]) turned out to be 60%. The inhibition in vivo at 100 mg/kg in experiment [2] (setting [6]) is 56%. The IC50 in experiment [3] (setting [7]) worked out at 856 nM.

As for `O=C(c1ccc2cc(Oc3ccc(C(F)(F)F)cn3)ccc2n1)N1CCCC1` [Example 10, pyrrolidin-1-yl(6-{[5-(trifluoromethyl)pyridin-2-yl]oxy}quinolin-2-yl)methanone], in experiment [1], the inhibition in vivo at 30 mg/kg is 48%. In addition, the inhibition in vivo at 100 mg/kg in experiment [2] (Rattus norvegicus) was found to be 35%.

As for `O=C(c1ccc2cc(Oc3ccc(C(F)F)cn3)ccc2n1)N1CCNCC1` [Example 14, (6-{[5-(difluoromethyl)pyridin-2-yl]oxy}quinolin-2-yl)(piperazin-1-yl)methanone], the inhibition in vivo at 30 mg/kg in experiment [1] (setting [5]) amounted to 81%. In addition, the inhibition in vivo at 100 mg/kg in experiment [2] (setting [6]) worked out at 44%.

`O=C(c1ccc2cc(Oc3ccc(C(F)(F)F)cn3)ccc2n1)N1CCC(F)C1` (stereo not drawn) [Example 35, (3-fluoropyrrolidin-1-yl)(6-{[5-(trifluoromethyl)pyridin-2-yl]oxy}quinolin-2-yl)methanone]: the inhibition in vivo at 10 mg/kg in experiment [1] (setting [8]) is 79%. Besides, the inhibition in vivo at 100 mg/kg in experiment [2] (setting [6]) worked out at 74%. Moreover, in experiment [3] (setting [7]), the IC50 turned out to be 1270 nM.

Take `O=C(c1ccc2cc(Oc3ccc(C(F)(F)F)cn3)ccc2n1)N1C[C@@H](F)C[C@H]1CO` [Example 50, [(2S,4S)-4-fluoro-2-(hydroxymethyl)pyrrolidin-1-yl](6-{[5-(trifluoromethyl)pyridin-2-yl]oxy}quinolin-2-yl)methanone]: the inhibition in vivo at 30 mg/kg in experiment [1] (setting [5]) worked out at 81%. Also, in experiment [2] (setting [6]), the inhibition in vivo at 100 mg/kg is 94%. Further, in experiment [3] (setting [7]), the IC50 stood at 12200 nM.

In the case of `O=C(c1ccc2cc(Oc3ccc(C(F)(F)F)cn3)ccc2n1)N1CC[C@H](F)C1` [Example 51, [(3S)-3-fluoropyrrolidin-1-yl](6-{[5-(trifluoromethyl)pyridin-2-yl]oxy}quinolin-2-yl)methanone], the inhibition in vivo at 30 mg/kg in experiment [1] (setting [5]) came to 52%. The inhibition in vivo at 100 mg/kg in experiment [2] (setting [6]) came out at 90%. The IC50 in experiment [3] (setting [7]) turned out to be 2250 nM.

With `C[C@@H]1CN(C(=O)c2ccc3cc(Oc4ccc(C(F)(F)F)nc4)ccc3n2)CCN1` [Example 62, [(3R)-3-methylpiperazin-1-yl](6-{[6-(trifluoromethyl)pyridin-3-yl]oxy}quinolin-2-yl)methanone], the results for the IC50 in experiment [4] (setting [9]) and in experiment [3] (setting [7]) were 120 nM and 500 nM, respectively. Moreover, the inhibition in vivo at 10 mg/kg in experiment [1] (setting [8]) is -1%.

In the case of `COC[C@H]1CN(C(=O)c2ccc3cc(Oc4ccc(C(F)(F)F)nc4)ccc3n2)CCN1` [Example 63, [(3R)-3-(methoxymethyl)piperazin-1-yl](6-{[6-(trifluoromethyl)pyridin-3-yl]oxy}quinolin-2-yl)methanone], the 50% inhibitory concentration (IC50) in experiment [4] worked out at 1160 nM; in experiment [3] (setting [7]), 976 nM. Further, in experiment [1] (setting [8]), the inhibition in vivo at 10 mg/kg came to 15%.

Turning to `COC[C@@H]1CN(C(=O)c2ccc3cc(Oc4ccc(C(F)(F)F)nc4)ccc3n2)CCN1` [Example 64, [(3S)-3-(methoxymethyl)piperazin-1-yl](6-{[6-(trifluoromethyl)pyridin-3-yl]oxy}quinolin-2-yl)methanone], the results for the 50% inhibitory concentration (IC50) in experiment [4] and in experiment [3] (setting [7]) were 491 nM and 382 nM, respectively. In experiment [1] (setting [8]), the inhibition in vivo at 10 mg/kg worked out at 29%.

For `CS(=O)(=O)CCCNC(=O)c1ccc2cc(Oc3ccc(C(F)(F)F)cn3)ccc2n1` [Example 65, N-[3-(methylsulfonyl)propyl]-6-{[5-(trifluoromethyl)pyridin-2-yl]oxy}quinoline-2-carboxamide], the IC50 in experiment [4] (setting [9]) stood at 4230 nM; in experiment [3], 2250 nM. Also, the inhibition in vivo at 30 mg/kg in experiment [1] (setting [5]) was 63%.

For the compound `NC1CN(C(=O)c2ccc3cc(Oc4ccc(C(F)(F)F)nc4)ccc3n2)C1` [Example 66, (3-amino azetidin-1-yl)(6-{[6-(trifluoromethyl)pyridin-3-yl]oxy}quinolin-2-yl)methanone], the IC50 worked out at 1180 nM in experiment [4] and 883 nM in experiment [3] (setting [7]). Further, the inhibition in vivo at 30 mg/kg in experiment [1] (setting [5]) was 52%.

For `CC1CN(C(=O)c2ccc3cc(Oc4ccc(C(F)F)cn4)ccc3n2)CC(C)N1` (stereo not drawn) [Example 67, (6-{[5-(difluoromethyl)pyridin-2-yl]oxy}quinolin-2-yl)(3,5-dimethylpiperazin-1-yl)methanone], the IC50 stood at 1750 nM in experiment [4] (setting [9]) and 1280 nM in experiment [3] (setting [7]). The inhibition in vivo at 10 mg/kg in experiment [1] (setting [8]) turned out to be 43%.

For `C[C@@H]1CN(C(=O)c2ccc3cc(Oc4ccc(C(F)F)cn4)ccc3n2)CCN1` [Example 68, (6-{[5-(difluoromethyl)pyridin-2-yl]oxy}quinolin-2-yl) [(3R)-3-methylpiperazin-1-yl]methanone], the IC50 in experiment [4] (setting [9]) amounted to 1890 nM; in experiment [3] (setting [7]), 1210 nM. In experiment [1] (setting [8]), the inhibition in vivo at 10 mg/kg is 52%.

As for `COC[C@@H]1CN(C(=O)c2ccc3cc(Oc4ccc(C(F)F)cn4)ccc3n2)CCN1` [Example 69, (6-{[5-(difluoromethyl)pyridin-2-yl]oxy}quinolin-2-yl)[(3S)-3-(methoxymethyl)piperazin-1-yl]methanone], the results for the IC50 in experiment [4] (setting [9]) and in experiment [3] (setting [7]) were 2320 nM and 895 nM, respectively. In addition, in experiment [1] (setting [8]), the inhibition in vivo at 10 mg/kg was 2%.

Regarding `O=C(c1ccc2cc(Oc3ccc(C(F)(F)F)cn3)ccc2n1)N1CC(N2CC[C@@H](F)C2)C1` [Example 70, {3-[(3R)-3-fluoropyrrolidin-1-yl]azetidin-1-yl}(6-{[5-(trifluoromethyl)pyridin-2-yl]oxy}quinolin-2-yl)methanone], the IC50 came to 821 nM in experiment [4] and 1250 nM in experiment [3]. Further, the inhibition in vivo at 10 mg/kg in experiment [1] (setting [8]) is 23%.

For `COC[C@H]1CN(C(=O)c2ccc3cc(Oc4ccc(C(F)F)cn4)ccc3n2)CCN1` [Example 71, (6-{[5-(difluoromethyl)pyridin-2-yl]oxy}quinolin-2-yl) [(3R)-3-(methoxymethyl)piperazin-1-yl]methanone], the IC50 in experiment [4] (setting [9]) worked out at 1640 nM; in experiment [3] (setting [7]) it was 1810 nM. Besides, in experiment [1] (setting [8]), the inhibition in vivo at 10 mg/kg came to 33%.

As for `O=C(c1ccc2cc(Oc3ccc(OC(F)(F)F)cn3)ccc2n1)N1CC[C@@H](F)C1` [Example 301, [(3R)-3-fluoropyrrolidin-1-yl](6-{[5-(trifluoromethoxy)pyridin-2-yl]oxy}quinolin-2-yl)methanone], the IC50 in experiment [4] (setting [9]) came out at 1400 nM; in experiment [3] (setting [7]), 3120 nM. The inhibition in vivo at 30 mg/kg in experiment [1] (setting [5]) stood at 58%.

With `O=C(NCC(F)(F)F)c1ccc2cc(Oc3ccc(C(F)F)cn3)ccc2n1` [Example 436, 6-{[5-(difluoromethyl)pyridin-2-yl]oxy}-N-(2,2,2-trifluoroethyl)quinoline-2-carboxamide], the IC50 in experiment [4] (setting [9]) was determined as 3420 nM; in experiment [3] (setting [7]), 1740 nM. In addition, the inhibition in vivo at 30 mg/kg in experiment [1] (setting [5]) was 51%.

Consider `O=C(c1ccc2cc(Oc3ccc(C(F)(F)F)cn3)ccc2n1)N1CCC12COC2` [Example 505, 6-oxa-1-azaspiro[3.3]hept-1-yl(6-{[5-(trifluoromethyl)pyridin-2-yl]oxy}quinolin-2-yl)methanone], for which the figures for the IC50 in experiment [4] (setting [9]) and in experiment [3] (setting [7]) were 2300 nM and 4940 nM, respectively. For the same compound, the inhibition in vivo at 30 mg/kg in experiment [1] was 52%.

For `O=C(c1ccc2cc(Oc3ccc(C(F)(F)F)cn3)ccc2n1)N1CC(OCC(F)F)C1` [Example 619, [3-(2,2-difluoroethoxy)azetidin-1-yl](6-{[5-(trifluoromethyl)pyridin-2-yl]oxy}quinolin-2-yl)methanone], the IC50 in experiment [4] (setting [9]) was determined as 2910 nM; in experiment [3] (setting [7]), 2880 nM. Also, in experiment [1] (setting [5]), the inhibition in vivo at 30 mg/kg is 53%.

(Values after patent publication US9452986B2, “6-heteroaryloxy- or 6-aryloxy-quinoline-2-carboxamides and method of use” (AbbVie Inc., priority 2014, dated 2016).)
